Laboratory results: patent US8048915B2, “Biologically active complex” (BioMas Ltd., priority 2001, dated 2011)
Several values for one entry are separate records, joined by “and”; a condition that tells them apart may be missing. Equal values may be shown once. Read-outs that look alike come from different tables or passages of the source.

Experiments:
[1] = test system: Ha-Ras transformed NIH-3T3 cells; experiment: Colony growth of Ha-Ras transformed NIH-3T3 cells; format: cell-based
Protocol: (§1) 5×10^2 cells were plated per 60 mm dish and incubated with different concentrations (0.005-5 μg/ml) of the complex in PBS. A week later, the cells were stained with Gimsa and clones were counted. Similar experiments were conducted using V-mos transformed NIH-3T3 cells, and also using Ph2TeCl2 and Ph3TeCl, with both types of transformed cells.

[2] = test system: IL-2 receptors of human mononuclear cells; experiment: Induction of IL-2 receptors of human mononuclear cells (proliferation with recombinant IL-2, 3H thymidine uptake); format: cell-based
Protocol: Human MNC were brought to a concentration of 10^6 cells/ml. RPMI+10% FCS. Aliquots of 0.2 ml. were placed in duplicate wells of microdishes and plates were incubated at 37° C. for 24 hrs. […] Plates were further incubated for 48 hrs and labeled with ^3H thymidine 24 hrs before harvesting. The proliferation was measured by ^3HT uptake as described by Gillis et al, J. Immunol. […] The results are expressed in counts per minute.

IL-2 [3] = test system: IL-2
Protocol: The complexes were administered in these dilutions, as drinking water, to male Balb-C mice, 6-8 weeks of age over a 4 day period. The exact amount of liquid intake was recorded daily. […] The cells were incubated at a concentration of 10^7 cells/ml in enriched RPMI containing 2 μg/ml of con-A for 24 hours at 37° C. The supernatants were collected and tested for IL-2 content.

[4] = test system: V-mos transformed NIH-3T3 cells; experiment: Colony growth of V-mos transformed NIH-3T3 cells; format: cell-based; conditions: one week; clones counted
Protocol: as §1

IL-2 [5] = conditions: 10^7 viable cells/ml
Protocol: (§2) Spleens were removed from 15, male Balb-c mice 6 to 8 weeks of age. The spleen cells were pushed through stainless steel 60 mesh (U.S. Standard) nets resting in 5 mm Petri dishes containing PBS in order to separate the cells. The cells were then collected into centrifuge tubes and spun at 1000 rpm for 10 minutes. The supernatant was discarded and cells were treated with 5 ml of hypotonic buffer (0.15M NH4Cl; 0.01M KHCO3 dissolved in double distilled water, pH 7.2) for exactly two minutes. Thereafter, PBS was added to the cells and the test tubes were centrifuged for 10 minutes at 1000 rpm. The cells were rinsed twice and counted in a hemocytometer using trypan blue to test for viability. The cells were brought to a concentration of 10^7viable cells/ml.

[6] = test system: colony stimulating factor (CSF)
Protocol: as §2

human mononuclear cells = experiment: Proliferation of human mononuclear cells (Example 14); format: cell-based; conditions: 72 hours + 24 hours label, listed as Ex. 1
Protocol: Human mononuclear cells were obtained by layering heparinized blood over a Ficoll/Hypaque gradient. The mononuclear cells were resuspended in enriched RPMI, rinsed three times and brought to a concentrations of 5×10^5cells/ml enriched RPMI. Varying concentrations of the complexes of Ex. 1 and Ex. 7(a), ranging from 0.005 μg to 5 μg/cell mixture were added to the cells. Aliquots of 0.2 ml of each sample were placed in wells of microplates (triplicates).

IL-2 receptors = experiment: IL-2 receptor sites on human mononuclear cells, fluoresceinated antibody; format: cell-based; conditions: 1 μg/ml; 24 hours incubation
Protocol: This example provides an assay to detect the presence of receptor sites for IL-2. […] The cells were washed twice with PBS and then incubated with a specific fluoresceinated antibody against IL-2 receptors as described in Uchiyama et al, J. Immunol.

mice = conditions: 6 week old mice; preliminary
IL-2 [7] = test system: IL-2; remark: listed apart in the source
[8] = 1 μg/ml H2O as drinking water over 4 days
[9] = 10 μg/ml H2O as drinking water over 4 days
[10] = 5 pg (as starting material of Preparation 1)
[11] = 50 pg (as starting material of Preparation 1)
[12] = 500 pg (as starting material of Preparation 1)
[13] = 5 ng (as starting material of Preparation 1)
[14] = 50 ng (as starting material of Preparation 1)
[15] = 500 ng (as starting material of Preparation 1)
[16] = 5 μg (as starting material of Preparation 1)
[17] = 50 μg (as starting material of Preparation 1)

Protocol for West Nile virus (WNV): All cultures were then infected with 10^4 PFU/plate. After 72 h incubation the supernatants were collected and the virus was titrated against Vera cells.

Cl[Te]1(Cl)(Cl)OCCO1.N [Example 1, equimolar complex of TeO2 and ethylene glycol, NH4Cl salt]
number of colonies / growth compared with control ([1]; 0.005-5 μg/ml in PBS, one week, clones counted): major reduction in the number of colonies
concentration giving the maximum effect (inhibition) ([1]; 0.005-5 μg/ml tested): 0.05 µg/mL
proliferation, 3HT uptake ([2]; Test A, 1 μg/ml, listed as Ex. 1): 28625 counts per minute and 27593 counts per minute
proliferation, 3HT uptake ([2]; Test A, 1 × 10^−3 μg/ml, listed as Ex. 1): 3652 counts per minute and 5055 counts per minute
proliferation, 3HT uptake ([2]; Test A, 1 × 10^−4 μg/ml, listed as Ex. 1): 3558 counts per minute and 4047 counts per minute
proliferation, 3HT uptake ([2]; Test A, 1 × 10^−5 μg/ml, listed as Ex. 1): 2474 counts per minute and 4063 counts per minute
proliferation, 3HT uptake ([2]; Test A, 5 × 10^−1 μg/ml, listed as Ex. 1): 120755 counts per minute and 105943 counts per minute
proliferation, 3HT uptake ([2]; Test A, 7 × 10^−1 μg/ml, listed as Ex. 1): 164538 counts per minute and 115195 counts per minute
proliferation, 3HT uptake ([2]; Test B, 1 μg/ml): 23488 counts per minute
proliferation, 3HT uptake ([2]; Test B, 1 × 10^−2 μg/ml): 6057 counts per minute
proliferation, 3HT uptake ([2]; Test B, 1 × 10^−3 μg/ml): 5865 counts per minute
proliferation, 3HT uptake ([2]; Test B, 1 × 10^−4 μg/ml): 4960 counts per minute
proliferation, 3HT uptake ([2]; Test B, 1 × 10^−5 μg/ml): 7155 counts per minute
proliferation, 3HT uptake ([2]; Test B, 5 × 10^−1 μg/ml): 66910 counts per minute
proliferation, 3HT uptake ([2]; Test B, 5 × 10^−2 μg/ml): 5390 counts per minute
proliferation, 3HT uptake ([2]; Test B, 7 × 10^−1 μg/ml): 17620 counts per minute
IL-2 content, cpm (IL-2 [3]; [8]): 44500 cpm
Percent increase as compared to control (IL-2 [3]; [8]): +35%
IL-2 content, cpm (IL-2 [3]; [9]): 49179 cpm
Percent increase as compared to control (IL-2 [3]; [9]): +50%
inducing lymphokine production when given orally (IL-2 [3]; orally in an aqueous diluent): active
inhibition of growth [4]: none of the complex, Ph2TeCl2 or Ph3TeCl inhibited the growth
IL-2 (IL-2 [5]; [10]): 12,000 cpm
IL-2 (IL-2 [5]; [11]): 38,000 cpm
IL-2 (IL-2 [5]; [12]): 30,000 cpm
IL-2 (IL-2 [5]; [13]): 15,000 cpm
IL-2 (IL-2 [5]; [14]): 6,000 cpm
IL-2 (IL-2 [5]; [15]): 5,000 cpm
IL-2 (IL-2 [5]; [16]): 5,000 cpm
IL-2 (IL-2 [5]; [17]): 5,000 cpm
CSF [6, 10]: 140 colonies/dish
CSF [6, 11]: 260 colonies/dish
CSF [6, 12]: 175 colonies/dish
CSF [6, 13]: 120 colonies/dish
CSF [6, 14]: 75 colonies/dish
CSF [6, 15]: 25 colonies/dish
CSF [6, 16]: 5 colonies/dish
CSF [6, 17]: 2 colonies/dish
proliferation of human mononuclear cells (3H methyl-thymidine) (human mononuclear cells; 5 μg/ml): 5008 and 5182
proliferation of human mononuclear cells (3H methyl-thymidine) (human mononuclear cells; 1 × 10^−5 μg/ml): 3218 and 2442
% Survival (fibrosarcoma cells; 10 μg IP at intervals, 4 days after inoculation with tumor cells): 100%
% Survival (fibrosarcoma cells; 10 μg IP at intervals, 9 days after inoculation with tumor cells): 100%
% Survival (fibrosarcoma cells; 10 μg IP at intervals, 23 days after inoculation with tumor cells): 100%
% Survival (fibrosarcoma cells; 10 μg IP at intervals, 30 days after inoculation with tumor cells): 100%
% Survival (fibrosarcoma cells; 10 μg IP at intervals, 37 days after inoculation with tumor cells): 100%
% Survival (fibrosarcoma cells; 39 days after inoculation with tumor cells, start of increased dosage regimen): 100%
% Survival (fibrosarcoma cells; 41 days after inoculation, increased dosage regimen from day 39): 100%
% Survival (fibrosarcoma cells; 43 days after inoculation, increased dosage regimen from day 39): 100%
% Survival (fibrosarcoma cells; 46 days after inoculation, increased dosage regimen from day 39): 80%
% Survival (fibrosarcoma cells; 48 days after inoculation, increased dosage regimen from day 39): 80%
% Survival (fibrosarcoma cells; 50 days after inoculation, increased dosage regimen from day 39): 80%
% Survival (fibrosarcoma cells; 53 days after inoculation, increased dosage regimen from day 39): 60%
% Survival (fibrosarcoma cells; 60 days after inoculation, increased dosage regimen from day 39): 40%
% Survival (fibrosarcoma cells; 67 days after inoculation, increased dosage regimen from day 39): 20%
% Survival (fibrosarcoma cells; 68 days after inoculation, increased dosage regimen from day 39): 0%
mortality (fibrosarcoma cells; group (b), until just after the increased dosage regimen (day 39)): ^1Day 39 marked the start of an increased dosage regimen to determine the toxicity of the complex of Example 1. The mortality results for group (b) were 0% until just after the increased dosage regimen.
cells positive for IL-2 receptors (IL-2 receptors): 20%
LD50 (mice): 300 μg/25 g of body weight
reduction in virus yield (West Nile virus (WNV)): ten
reduction of virus yield (West Nile virus (WNV)): 40 fold
IL-2 production (IL-2 [7]; NORMAL subjects, PHA +, 5 μg 0.2 ml PBS): 30.4 CPM × 10^−3 and 38.9 CPM × 10^−3 and 36.4 CPM × 10^−3
IL-2 production (IL-2 [7]; NORMAL subjects, PHA +, 1:50 PBS dilution of 5 μg/0.2 ml): 38.9 CPM × 10^−3 and 53.5 CPM × 10^−3 and 48.2 CPM × 10^−3
IL-2 production (IL-2 [7]; NORMAL subjects, PHA +, 1:100 PBS dilution of 5 μg/0.2 ml): 54.2 CPM × 10^−3 and 44.8 CPM × 10^−3 and 38.6 CPM × 10^−3
IL-2 production (IL-2 [7]; NORMAL subjects, PHA +, 1:200 PBS dilution of 5 μg/0.2 ml): 49.8 CPM × 10^−3 and 38.3 CPM × 10^−3 and 38.6 CPM × 10^−3
IL-2 production (IL-2 [7]; NORMAL subjects, PHA −, 5 μg 0.2 ml PBS): 2.1 CPM × 10^−3 and 2.3** CPM × 10^−3
IL-2 production (IL-2 [7]; NORMAL subjects, PHA −, 1:50 PBS dilution of 5 μg/0.2 ml): 52.2 CPM × 10^−3 and 50.8 CPM × 10^−3 and 43.6 CPM × 10^−3
IL-2 production (IL-2 [7]; NORMAL subjects, PHA −, 1:100 PBS dilution of 5 μg/0.2 ml): 50.3 CPM × 10^−3 and 46.1 CPM × 10^−3 and 38.4 CPM × 10^−3
IL-2 production (IL-2 [7]; NORMAL subjects, PHA −, 1:200 PBS dilution of 5 μg/0.2 ml): 47.1 CPM × 10^−3 and 31.3 CPM × 10^−3 and 30.1 CPM × 10^−3
IL-2 production (IL-2 [7]; SLE patients, PHA +, 5 μg 0.2 ml PBS): 6.3 CPM × 10^−3 and 8.2 CPM × 10^−3 and 4.1 CPM × 10^−3
IL-2 production (IL-2 [7]; SLE patients, PHA +, 1:50 PBS dilution of 5 μg/0.2 ml): 24.2 CPM × 10^−3 and 28.1 CPM × 10^−3 and 23.8 CPM × 10^−3
IL-2 production (IL-2 [7]; SLE patients, PHA +, 1:100 PBS dilution of 5 μg/0.2 ml): 19.7 CPM × 10^−3 and 24.0 CPM × 10^−3 and 20.2 CPM × 10^−3
IL-2 production (IL-2 [7]; SLE patients, PHA +, 1:200 PBS dilution of 5 μg/0.2 ml): 15.4 CPM × 10^−3 and 18.6 CPM × 10^−3 and 16.8 CPM × 10^−3
IL-2 production (IL-2 [7]; SLE patients, PHA −, 5 μg 0.2 ml PBS): 2.0 CPM × 10^−3 and 2.4 CPM × 10^−3
IL-2 production (IL-2 [7]; SLE patients, PHA −, 1:100 PBS dilution of 5 μg/0.2 ml): 32.1 CPM × 10^−3 and 35.1 CPM × 10^−3 and 18.1 CPM × 10^−3
